Assay results published in PMC12452633 (RSC Medicinal Chemistry, 2025).

How the values were obtained:
Ku70/80 = Ku70/80 (Homo sapiens, UniProt P12956+P13010); assay: Ku–DNA binding EMSA; settings: for IC50: Ku70/80 (IC50), purified Ku70/80, direct DNA binding activity by EMSA
DNA-PK = DNA-PK (Homo sapiens, UniProt P12956+P13010); assay: DNA-PK phosphoryl-transferase catalytic; assay type: biochemical
[1] = CF3 in place of CH3 on pyrazolone ring

Sequence of Ku70/80 (P12956 whole entry): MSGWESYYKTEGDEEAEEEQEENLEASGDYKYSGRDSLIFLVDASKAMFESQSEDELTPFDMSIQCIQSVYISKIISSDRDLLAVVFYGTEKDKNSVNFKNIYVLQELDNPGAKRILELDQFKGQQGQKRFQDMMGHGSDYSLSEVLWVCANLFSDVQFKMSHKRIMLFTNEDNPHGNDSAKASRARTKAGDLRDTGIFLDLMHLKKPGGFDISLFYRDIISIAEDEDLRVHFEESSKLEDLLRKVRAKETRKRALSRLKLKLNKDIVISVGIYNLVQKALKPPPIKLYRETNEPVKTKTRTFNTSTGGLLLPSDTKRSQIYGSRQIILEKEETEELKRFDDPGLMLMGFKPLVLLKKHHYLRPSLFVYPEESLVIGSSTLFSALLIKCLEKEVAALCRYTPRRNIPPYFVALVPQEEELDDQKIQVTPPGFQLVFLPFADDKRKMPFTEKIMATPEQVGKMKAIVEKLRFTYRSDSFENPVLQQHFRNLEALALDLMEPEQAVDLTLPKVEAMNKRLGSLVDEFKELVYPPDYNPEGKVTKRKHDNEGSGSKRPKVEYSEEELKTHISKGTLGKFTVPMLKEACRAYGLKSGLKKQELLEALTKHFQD
Sequence of Ku70/80 (P13010 whole entry): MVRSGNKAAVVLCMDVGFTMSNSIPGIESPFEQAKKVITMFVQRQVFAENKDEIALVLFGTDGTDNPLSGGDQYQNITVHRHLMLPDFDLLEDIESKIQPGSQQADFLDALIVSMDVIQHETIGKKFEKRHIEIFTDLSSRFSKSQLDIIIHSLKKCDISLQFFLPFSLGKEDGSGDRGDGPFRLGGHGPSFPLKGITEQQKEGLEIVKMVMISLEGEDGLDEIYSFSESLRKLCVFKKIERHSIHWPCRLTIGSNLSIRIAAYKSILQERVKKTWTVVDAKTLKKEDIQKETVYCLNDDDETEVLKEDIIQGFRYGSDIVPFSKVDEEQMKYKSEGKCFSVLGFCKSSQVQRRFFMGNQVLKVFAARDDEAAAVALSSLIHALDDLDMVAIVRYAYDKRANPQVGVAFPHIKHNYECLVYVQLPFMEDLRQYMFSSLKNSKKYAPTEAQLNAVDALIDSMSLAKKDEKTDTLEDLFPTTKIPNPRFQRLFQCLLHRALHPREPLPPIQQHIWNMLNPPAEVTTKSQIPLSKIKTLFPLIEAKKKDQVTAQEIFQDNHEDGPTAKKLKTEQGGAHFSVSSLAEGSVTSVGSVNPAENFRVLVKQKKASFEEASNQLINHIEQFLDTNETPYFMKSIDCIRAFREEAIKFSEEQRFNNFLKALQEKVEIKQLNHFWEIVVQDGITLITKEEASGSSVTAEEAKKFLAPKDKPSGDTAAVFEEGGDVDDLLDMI
Sequence of DNA-PK (P12956 whole entry): as the sequence (P12956 whole entry) above
Sequence of DNA-PK (P13010 whole entry): as the sequence (P13010 whole entry) above

| IC50 (Ku70/80) [µM] | IC50 (DNA-PK) [µM] | SMILES | further results |
| --- | --- | --- | --- |
| > 25 | 0.48 ± 0.048 | COc1cccc(CNC(=O)c2cc(-c3ccc(/C=C4\C(=O)N(c5ccc(C(=O)O)cc5)N=C4C)o3)ccc2Cl)c1 [Compound 47, (Z)-4-(4-((5-(4-Chloro-3-((3-methoxybenzyl)carbamoyl)phenyl)furan-2-yl)methylene)-3-methyl-5-oxo-4,5-dihydro-1H-pyrazol-1-yl)benzoic acid] | – |
| 11.3 ± 2.16 | 1.41 ± 0.27 | COc1cccc(NC(=O)c2cc(-c3ccc(/C=C4\C(=O)N(c5ccc(S(N)(=O)=O)cc5)N=C4C)o3)ccc2Cl)c1 [Compound 67, (Z)-2-Chloro-N-(3-methoxyphenyl)-5-(5-((3-methyl-5-oxo-1-(4-sulfamoylphenyl)-1,5-dihydro-4H-pyrazol-4-ylidene)methyl)furan-2-yl)benzamide] | – |
| 6.09 ± 0.36 | 0.4 ± 0.04 | COc1cccc(NC(=O)c2cc(-c3ccc(CC4C(=O)N(c5cccc(C(=O)O)c5)N=C4C)s3)ccc2Cl)c1 (stereo not shown) [Compound 57, 3-(4-((5-(4-Chloro-3-((3-methoxyphenyl)carbamoyl)phenyl)thiophen-2-yl)methyl)-3-methyl-5-oxo-4,5-dihydro-1H-pyrazol-1-yl)benzoic acid] | – |
| 7.67 ± 2.95 | 0.808 ± 0.037 | COc1cccc(NC(=O)c2cc(-c3ccc(CC4C(=O)N(c5ccc(C(=O)O)cc5)N=C4C)o3)ccc2Cl)c1 (stereo not shown) [Compound 55, 4-(4-((5-(4-Chloro-3-((3-methoxyphenyl)carbamoyl)phenyl)furan-2-yl)methyl)-3-methyl-5-oxo-4,5-dihydro-1H-pyrazol-1-yl)benzoic acid] | – |
| 3.55 ± 0.4 | 1.74 ± 0.61 | CC1=NN(c2cccc(C(=O)O)c2)C(=O)/C1=C\c1ccc(-c2ccc(Cl)c(C(=O)NCc3ccccc3Cl)c2)o1 [Compound 38, (Z)-3-(4-((5-(4-Chloro-3-((2-chlorobenzyl)carbamoyl)phenyl)furan-2-yl)methylene)-3-methyl-5-oxo-4,5-dihydro-1H-pyrazol-1-yl)benzoic acid] | – |
| > 25 | 2.5 | CC1=NN(c2ccc(C(=O)O)cc2)C(=O)/C1=C\c1ccc(-c2ccc(Cl)c(C(=O)NCc3cccnc3)c2)o1 [Compound 49, (Z)-4-(4-((5-(4-Chloro-3-((pyridin-3-ylmethyl)carbamoyl)phenyl)furan-2-yl)methylene)-3-methyl-5-oxo-4,5-dihydro-1H-pyrazol-1-yl)benzoic acid] | – |
| 9.77 ± 4.16 | 1.57 ± 0.73 | COc1cccc(NC(=O)c2cc(-c3ccc(/C=C4\C(=O)N(c5cccc(C(=O)O)c5)N=C4C)[nH]3)ccc2Cl)c1 [Compound 44, (Z)-3-(4-((5-(4-Chloro-3-((3-methoxyphenyl)carbamoyl)phenyl)-1H-pyrrol-2-yl)methylene)-3-methyl-5-oxo-4,5-dihydro-1H-pyrazol-1-yl)benzoic acid] | – |
| > 25 | – | COc1cccc(NC(=O)c2cc(-c3ccc(/C=C4\C(=O)N(c5cccc(C#N)c5)N=C4C)o3)ccc2Cl)c1 [Compound 74, (Z)-2-chloro-5-(5-((1-(3-cyanophenyl)-3-methyl-5-oxo-1,5-dihydro-4H-pyrazol-4-ylidene)methyl)furan-2-yl)-N-(3-methoxyphenyl)benzamide] | Ku inhibitory activity (qualitative) (Ku70/80; carboxylic acid replaced by nitrile): complete abolition of Ku inhibitory activity |
| 22.4 ± 4.19 | 0.48 ± 0.016 | CC1=NN(c2ccc(C(=O)O)cc2)C(=O)/C1=C\c1ccc(-c2ccc(Cl)c(C(=O)NCc3ccccc3)c2)o1 [Compound 48, (Z)-4-(4-((5-(3-(Benzylcarbamoyl)-4-chlorophenyl)furan-2-yl)methylene)-3-methyl-5-oxo-4,5-dihydro-1H-pyrazol-1-yl)benzoic acid] | – |
| 6.9 ± 1 | 0.53 ± 0.18 | CC1=NN(c2cccc(C(=O)O)c2)C(=O)/C1=C\c1ccc(-c2ccc(Cl)c(C(=O)Nc3cccc(OC(F)(F)F)c3)c2)[nH]1 [Compound 45, (Z)-3-(4-((5-(4-Chloro-3-((3-(trifluoromethoxy)phenyl)carbamoyl)phenyl)-1H-pyrrol-2-yl)methylene)-3-methyl-5-oxo-4,5-dihydro-1H-pyrazol-1-yl)benzoic acid] | – |
| 8.22 ± 0.45 | 0.83 ± 0.09 | CC1=NN(c2cccc(C(=O)O)c2)C(=O)/C1=C\c1ccc(-c2ccc(Cl)c(C(=O)NCc3ccccc3)c2)o1 [Compound 37, (Z)-3-(4-((5-(3-(Benzylcarbamoyl)-4-chlorophenyl)furan-2-yl)methylene)-3-methyl-5-oxo-4,5-dihydro-1H-pyrazol-1-yl)benzoic acid] | – |
| 3.51 ± 1.81 | 0.98 ± 0.52 | COc1cccc(NC(=O)c2cc(-c3ccc(/C=C4\C(=O)N(c5cccc(-c6nnn[nH]6)c5)N=C4C)o3)ccc2Cl)c1 [Compound 75, (Z)-5-(5-((1-(3-(1H-tetrazol-5-yl)phenyl)-3-methyl-5-oxo-1,5-dihydro-4H-pyrazol-4-ylidene)methyl)furan-2-yl)-2-chloro-N-(3-methoxyphenyl)benzamide] | – |
| 3.36 ± 0.52 | – | COc1cccc(NC(=O)c2cc(-c3ccc(/C=C4\C(=O)N(c5cccc(C(=O)O)c5)N=C4C(F)(F)F)o3)ccc2Cl)c1 [Compound 50, (Z)-3-(4-((5-(4-Chloro-3-((3-methoxyphenyl)carbamoyl)phenyl)furan-2-yl)methylene)-5-oxo-3-(trifluoromethyl)-4,5-dihydro-1H-pyrazol-1-yl)benzoic acid] | increase in Ku inhibitory activity (Ku70/80; [1]): 2 fold; increase in DNA-PK inhibitory activity (DNA-PK; [1]): ~20 fold |
| 7.86 ± 4.4 | 0.57 ± 0.12 | COc1cccc(NC(=O)c2cc(-c3ccc(CC4C(=O)N(c5ccc(S(N)(=O)=O)cc5)N=C4C)o3)ccc2Cl)c1 (stereo not shown) [Compound 70, 2-chloro-N-(3-methoxyphenyl)-5-(5-((3-methyl-5-oxo-1-(4-sulfamoylphenyl)-4,5-dihydro-1H-pyrazol-4-yl)methyl)furan-2-yl)benzamide] | increase in Ku inhibitory activity (Ku70/80; compared with compound 67): 1–2.5 fold; increase in DNA-PK activity (DNA-PK; compared with compound 67): 1–2.5 fold |
| 9.04 ± 0.36 | 0.53 ± 0.07 | COc1cccc(NC(=O)c2cc(-c3ccc(/C=C4\C(=O)N(c5ccc(C(=O)O)cc5)N=C4C)s3)ccc2Cl)c1 [Compound 41, (Z)-4-(4-((5-(4-Chloro-3-((3-methoxyphenyl)carbamoyl)phenyl)thiophen-2-yl)methylene)-3-methyl-5-oxo-4,5-dihydro-1H-pyrazol-1-yl)benzoic acid] | – |

Continued, compound first:

| SMILES | IC50 (Ku70/80) [µM] | IC50 (DNA-PK) [µM] | further results |
| --- | --- | --- | --- |
| CC1=NN(c2ccc(S(N)(=O)=O)cc2)C(=O)/C1=C\c1ccc(-c2ccc(Cl)c(C(=O)NCC3CC3)c2)o1 [Compound 68, (Z)-2-Chloro-N-(cyclopropylmethyl)-5-(5-((3-methyl-5-oxo-1-(4-sulfamoylphenyl)-1,5-dihydro-4H-pyrazol-4-ylidene)methyl)furan-2-yl)benzamide] | > 25 | – | – |
| O=C(O)c1cccc(N2N=C(C(F)(F)F)/C(=C/c3ccc(-c4ccc(Cl)c(C(=O)NCC5CC5)c4)o3)C2=O)c1 [Compound 51, (Z)-3-(4-((5-(4-Chloro-3-((cyclopropylmethyl)carbamoyl)phenyl)furan-2-yl)methylene)-5-oxo-3-(trifluoromethyl)-4,5-dihydro-1H-pyrazol-1-yl)benzoic acid] | 11.4 ± 8.26 | 0.35 | – |
| CC1=NN(c2ccc(S(N)(=O)=O)cc2)C(=O)/C1=C\c1ccc(-c2ccc(Cl)c(C(=O)NCc3ccc(F)cc3)c2)o1 [Compound 69, (Z)-2-Chloro-N-(4-fluorobenzyl)-5-(5-((3-methyl-5-oxo-1-(4-sulfamoylphenyl)-1,5-dihydro-4H-pyrazol-4-ylidene)methyl)furan-2-yl)benzamide] | 20.7 ± 1.84 | 1.53 ± 0.22 | – |
| CC1=NN(c2cccc(C(=O)O)c2)C(=O)/C1=C\c1ccc(-c2ccc(Cl)c(C(=O)NCc3ccc(F)cc3)c2)s1 [Compound 43, (Z)-3-(4-((5-(4-Chloro-3-((4-fluorobenzyl)carbamoyl)phenyl)thiophen-2-yl)methylene)-3-methyl-5-oxo-4,5-dihydro-1H-pyrazol-1-yl)benzoic acid] | 10.1 ± 1.4 | 3.24 | – |
| COc1cccc(CNC(=O)c2cc(-c3ccc(CC4C(=O)N(c5ccc(C(=O)O)cc5)N=C4C)o3)ccc2Cl)c1 (stereo not shown) [Compound 56, 4-(4-((5-(4-Chloro-3-((3-methoxybenzyl)carbamoyl)phenyl)furan-2-yl)methyl)-3-methyl-5-oxo-4,5-dihydro-1H-pyrazol-1-yl)benzoic acid] | 12.4 ± 3.8 | 0.49 ± 0.08 | – |
| O=C(O)c1cccc(N2N=C(C(F)(F)F)C(Cc3ccc(-c4ccc(Cl)c(C(=O)NCC5CC5)c4)o3)C2=O)c1 (stereo not shown) [Compound 62, 3-(4-((5-(4-Chloro-3-((cyclopropylmethyl)carbamoyl)phenyl)furan-2-yl)methyl)-5-oxo-3-(trifluoromethyl)-4,5-dihydro-1H-pyrazol-1-yl)benzoic acid] | 14.2 ± 0.21 | – | – |
| O=C(O)c1cccc(N2N=C(C(F)(F)F)/C(=C/c3ccc(-c4ccc(Cl)c(C(=O)O)c4)o3)C2=O)c1 [Compound 16, (Z)-5-(5-((1-(3-carboxyphenyl)-5-oxo-3-(trifluoromethyl)-1,5-dihydro-4H-pyrazol-4-ylidene)methyl)furan-2-yl)-2-chlorobenzoic acid] | 16.4 ± 3.94 | – | – |
| CC1=NN(c2cccc(C(=O)O)c2)C(=O)/C1=C\c1ccc(-c2ccc(Cl)c(C(=O)NCC3CCCCC3)c2)o1 [Compound 39, (Z)-3-(4-((5-(4-Chloro-3-((cyclohexylmethyl)carbamoyl)phenyl)furan-2-yl)methylene)-3-methyl-5-oxo-4,5-dihydro-1H-pyrazol-1-yl)benzoic acid] | 22.6 ± 4.4 | – | – |
| CC1=NN(c2cccc(C(=O)O)c2)C(=O)/C1=C\c1ccc(-c2ccc(Cl)c(C(=O)NCC3CC3)c2)s1 [Compound 42, (Z)-3-(4-((5-(4-Chloro-3-((cyclopropylmethyl)carbamoyl)phenyl)thiophen-2-yl)methylene)-3-methyl-5-oxo-4,5-dihydro-1H-pyrazol-1-yl)benzoic acid] | 11.1 ± 0.76 | 3.04 ± 0.7 | – |
| CC1=NN(c2cccc(C(=O)O)c2)C(=O)C1Cc1ccc(-c2ccc(Cl)c(C(=O)NCc3ccc(F)cc3)c2)s1 (stereo not shown) [Compound 60, 3-(4-((5-(4-Chloro-3-((4-fluorobenzyl)carbamoyl)phenyl)thiophen-2-yl)methyl)-3-methyl-5-oxo-4,5-dihydro-1H-pyrazol-1-yl)benzoic acid] | 4.1 ± 0.3 | 2.66 ± 1.74 | – |
